# Where two headings read alike, the source gives them in different places.
# Columns and labels:
# HCT116 cells = assay: HCT116 Cell Titer Glow assay (CTG); settings: Homo sapiens, HCT-116, 72 h; for IC50: read-out: CTG IC50 (nM) Cell Line: HCT116.20
# IPC298 cells = assay: IPC298 Cell Titer Glow assay (CTG); settings: Homo sapiens, IPC-298, 72 h; for IC50: read-out: CTG IC50 (nM) Cell Line: IPC298.2
# [1] = read-out: CTG % cell viability 1000 uM HCT116.20, HCT116 cells, 72 hours, 1000 uM, percent cells remaining after treatment
# [2] = read-out: CTG % cell viability 100 uM IPC298.2, IPC298 cells, 72 hours, 100 uM, percent cells remaining after treatment
# [3] = read-out: CTG % cell viability 1000 uM HCT116.20
# [4] = read-out: CTG % cell viability 100 uM IPC298.2
IC50 (HCT116 cells) [nM],Compound,IC50 (IPC298 cells) [nM],viability at 1000 µM (HCT116 cells; [1]) [%],viability at 100 µM (IPC298 cells; [2]) [%],viability at 1000 µM (HCT116 cells; [3]) [%],viability at 100 µM (IPC298 cells; [4]) [%]
10 to 100,"CNS(=O)(=O)Nc1nccc(Cc2cncc(Nc3ccc(OC(F)F)cn3)c2C)c1F [Example 66, 4-[[5-[[5-(difluoromethoxy)-2-pyridyl]amino]-4-methyl-3-pyridyl]methyl]-3-fluoro-N-(methylsulfamoyl)pyridin-2-amine]",< 10,,,,
10 to 100,"CNS(=O)(=O)Nc1nccc(Cc2cncc(Nc3ccc(Cl)cc3F)c2Cl)c1F [Example 67, 4-chloro-N-(4-chloro-2-fluorophenyl)-5-({3-fluoro-2-[(methylsulfamoyl)amino]pyridin-4-yl}methyl)pyridin-3-amine]",< 10,,,,
500 to 1000,"C=CCNc1cncc(Cc2ccnc(NS(=O)(=O)NC)c2F)c1C [Example 68, 4-[[5-(allylamino)-4-methyl-3-pyridyl]methyl]-3-fluoro-N-(methylsulfamoyl)pyridin-2-amine]",> 1000,,,,
> 1000,"CNS(=O)(=O)Nc1nccc(Cc2cncc(Nc3ccc(OC(F)(F)F)cn3)c2C)c1F [Example 69, 3-fluoro-N-(methylsulfamoyl)-4-[[4-methyl-5-[[5-(trifluoromethoxy)-2-pyridyl]amino]-3-pyridyl]methyl]pyridin-2-amine]",10 to 100,60.4,,,
> 1000,"CNS(=O)(=O)Nc1nccc(Cc2cccc(Nc3ccc(Cl)cc3F)c2C)c1F [Example 70, 4-[[3-(4-chloro-2-fluoro-anilino)-2-methyl-phenyl]methyl]-3-fluoro-N-(methylsulfamoyl)pyridin-2-amine]",10 to 100,50.2,,,
< 10,"CNS(=O)(=O)Nc1nccc(Cc2cncc(Oc3ccc(SC)cc3)c2C)c1F [Example 71, {[3-fluoro-4-({4-methyl-5-[4-(methylsulfanyl)phenoxy]pyridin-3-yl}methyl)pyridin-2-yl]sulfamoyl}(methyl)amine]",< 10,,,,
500 to 1000,"CNS(=O)(=O)Nc1nccc(Cc2cncc(Oc3ccc(S(C)(=O)=O)cc3)c2C)c1F [Example 72, [(3-fluoro-4-{[5-(4-methanesulfonylphenoxy)-4-methylpyridin-3-yl]methyl}pyridin-2-yl)sulfamoyl](methyl)amine]",10 to 100,,,,
> 1000,"CNS(=O)(=O)Nc1nccc(Cc2cncc(OC3CCC(C)(C)CC3)c2C)c1F [Example 73, 4-[[5-(4,4-dimethylcyclohexoxy)-4-methyl-3-pyridyl]methyl]-3-fluoro-N-(methylsulfamoyl)pyridin-2-amine]",> 1000,75.4,80.8,,
> 1000,"CC#CCOc1cncc(Cc2ccnc(NS(=O)(=O)NC)c2F)c1C [Example 75, 4-[(5-but-2-ynoxy-4-methyl-3-pyridyl)methyl]-3-fluoro-N-(methylsulfamoyl)pyridin-2-amine]",> 1000,89.1,87.5,,
100 to 500,"CNS(=O)(=O)Nc1nccc(Cc2cncc(Oc3ccc(Cl)cc3C)c2C)c1F [Example 76, 4-[[5-(4-chloro-2-methyl-phenoxy)-4-methyl-3-pyridyl]methyl]-3-fluoro-N-(methylsulfamoyl)pyridin-2-amine]",< 10,,,,
100 to 500,"CNS(=O)(=O)Nc1nccc(Oc2cncc(Oc3ccc(Cl)cc3)c2C)c1F [Example 77, 4-[[5-(4-chlorophenoxy)-4-methyl-3-pyridyl]oxy]-3-fluoro-N-(methylsulfamoyl)pyridin-2-amine]",< 10,,,,
100 to 500,"CNS(=O)(=O)Nc1nccc(Cc2cncc(Sc3ccc(Cl)cc3)c2C)c1F [Example 78, {[4-({5-[(4-chlorophenyl)sulfanyl]-4-methylpyridin-3-yl}methyl)-3-fluoropyridin-2-yl]sulfamoyl}(methyl)amine]",< 10,,,,
< 10,CNS(=O)(=O)Nc1nccc(Oc2cncc(Nc3ccc(C)cc3F)c2C)c1F [Example 79],< 10,,,,
< 10,"CCc1ccc(Nc2cncc(Oc3ccnc(NS(=O)(=O)NC)c3F)c2C)c(F)c1 [Example 80, N-(4-ethyl-2-fluorophenyl)-5-({3-fluoro-2-[(methylsulfamoyl)amino]pyridin-4-yl}oxy)-4-methylpyridin-3-amine]",< 10,,,,
100 to 500,"CCNS(=O)(=O)Nc1nccc(Cc2cncc(Oc3ccc(Cl)cc3F)c2C)c1F [Example 81, 4-[[5-(4-chloro-2-fluoro-phenoxy)-4-methyl-3-pyridyl]methyl]-N-(ethylsulfamoyl)-3-fluoro-pyridin-2-amine]",< 10,,,,
> 1000,"CNS(=O)(=O)Nc1nccc(Cc2cncc(OCc3ccc(Cl)cc3)c2C)c1F [Example 82, 4-[[5-[(4-chlorophenyl)methoxy]-4-methyl-3-pyridyl]methyl]-3-fluoro-N-(methylsulfamoyl)pyridin-2-amine]",> 1000,93,56,,
10 to 100,"CCc1c(Cc2ccnc(NS(=O)(=O)NC)c2F)cncc1Oc1ccc(Cl)cc1 [Example 83, 4-[[5-(4-chlorophenoxy)-4-ethyl-3-pyridyl]methyl]-3-fluoro-N-(methylsulfamoyl)pyridin-2-amine]",< 10,,,,
500 to 1000,"CNS(=O)(=O)Nc1nccc(Oc2cncc(Oc3ccc(C)cc3Cl)c2C)c1F [Example 84, 4-[[5-(2-chloro-4-methyl-phenoxy)-4-methyl-3-pyridyl]oxy]-3-fluoro-N-(methylsulfamoyl)pyridin-2-amine]",< 10,,,,
100 to 500,"CNS(=O)(=O)Nc1nccc(Cc2cncc(OCc3cccc(Cl)c3)c2C)c1F [Example 86, 4-[[5-[(3-chlorophenyl)methoxy]-4-methyl-3-pyridyl]methyl]-3-fluoro-N-(methylsulfamoyl)pyridin-2-amine]",10 to 100,,,,
> 1000,"CNS(=O)(=O)Nc1nccc(Cc2cccc3c2CCCN3c2ccc(Cl)cc2F)c1F [Example 87, 4-[[1-(4-chloro-2-fluoro-phenyl)-3,4-dihydro-2H-quinolin-5-yl]methyl]-3-fluoro-N-(methylsulfamoyl)pyridin-2-amine]",> 1000,95,101,,
100 to 500,"CNS(=O)(=O)Nc1nccc(Cc2cncc(Nc3ccc(CC(C)C)cc3F)c2C)c1F [Example 88, 3-fluoro-4-[[5-(2-fluoro-4-isobutyl-anilino)-4-methyl-3-pyridyl]methyl]-N-(methylsulfamoyl)pyridin-2-amine]",< 10,,,,
> 1000,"CNS(=O)(=O)Nc1nccc(Cc2cncc(Oc3ncc(C)s3)c2C)c1F [Example 89, 3-fluoro-4-[[4-methyl-5-(5-methylthiazol-2-yl)oxy-3-pyridyl]methyl]-N-(methylsulfamoyl)pyridin-2-amine]",> 1000,95,100,,
> 1000,"Cc1c(Cc2ccnc(NS(=O)(=O)NC(C)C)c2F)cncc1Oc1ccc(Cl)cc1F [Example 90, 4-[[5-(4-chloro-2-fluoro-phenoxy)-4-methyl-3-pyridyl]methyl]-3-fluoro-N-(isopropylsulfamoyl)pyridin-2-amine]",10 to 100,59.5,,,
10 to 100,"CNS(=O)(=O)Nc1nccc(Cc2cncc(Oc3ccc(C)cc3F)c2C)c1OC [Example 91, 4-[[5-(2-fluoro-4-methyl-phenoxy)-4-methyl-3-pyridyl]methyl]-3-methoxy-N-(methylsulfamoyl)pyridin-2-amine]",< 10,,,,
10 to 100,"CNS(=O)(=O)Nc1nccc(Cc2cncc(Oc3ccc(Cl)cc3F)c2C)c1OC [Example 93, 4-[[5-(4-chloro-2-fluoro-phenoxy)-4-methyl-3-pyridyl]methyl]-3-methoxy-N-(methylsulfamoyl)pyridin-2-amine]",< 10,,,,
100 to 500,"CNS(=O)(=O)Nc1nccc(Cc2cncc(Oc3ccc(OC)cc3F)c2C)c1F [Example 94, 3-fluoro-4-[[5-(2-fluoro-4-methoxy-phenoxy)-4-methyl-3-pyridyl]methyl]-N-(methylsulfamoyl)pyridin-2-amine]",< 10,,,,
10 to 100,"CCNS(=O)(=O)Nc1nccc(Cc2cncc(Nc3ccc(C)cc3F)c2C)c1F [Example 95, N-(ethylsulfamoyl)-3-fluoro-4-[[5-(2-fluoro-4-methyl-anilino)-4-methyl-3-pyridyl]methyl]pyridin-2-amine]",< 10,,,,
10 to 100,"Cc1ccc(Nc2cncc(Cc3ccnc(NS(N)(=O)=O)c3F)c2C)c(F)c1 [Example 96, 3-fluoro-4-[[5-(2-fluoro-4-methyl-anilino)-4-methyl-3-pyridyl]methyl]-2-(sulfamoylamino)pyridine]",< 10,,,,

Compound,IC50 (HCT116 cells) [nM],IC50 (IPC298 cells) [nM],viability at 1000 µM (HCT116 cells; [1]) [%],viability at 100 µM (IPC298 cells; [2]) [%],viability at 1000 µM (HCT116 cells; [3]) [%],viability at 100 µM (IPC298 cells; [4]) [%]
"CNS(=O)(=O)Nc1nccc(Cc2cncc(NC3CC4(C3)CN(C)C4)c2C)c1F [Example 85, N-[5-[[3-fluoro-2-(methylsulfamoylamino)-4-pyridyl]methyl]-4-methyl-3-pyridyl]-2-methyl-2-azaspiro[3.3]heptan-6-amine]",> 1000,> 1000,,,102,106
"CNS(=O)(=O)Nc1nccc(Cc2cncc(OC3CC4(C3)CN(C)C4)c2C)c1F [Example 92, 3-fluoro-4-[[4-methyl-5-[(2-methyl-2-azaspiro[3.3]heptan-6-yl)oxy]-3-pyridyl]methyl]-N-(methylsulfamoyl)pyridin-2-amine]",> 1000,> 1000,,,103,101
